The source of these data is PMC6358866 (International Journal of Molecular Sciences, 2019).

In data set [1] the test system is Staphylococcus epidermidis ATCC 14990 biofilm. The data set can be described thus: Activity against biofilms formed on polystyrene 96-well plates, 24 h exposure, resazurin. Particulars: for MBEC 50: lowest concentration reducing metabolic activity by at least 50 ± 5%; for MBEC 50 / MBEC 90: polystyrene plate, 24 h exposure in MHB II, resazurin; for MBEC 90: lowest concentration reducing metabolic activity by at least 90 ± 5%, mean of nine results. The data set is classed as cell-based. The protocol:
(§1) Bacterial strains were obtained from the Polish Collection of Microorganisms (Polish Academy of Science, Wroclaw, Poland). […] The bacteria were cultured in a Mueller Hinton Broth II (MHB, Biocorp, Warsaw, Poland) overnight, under aerobic conditions at 37 °C. After incubation, the liquid cultures were centrifuged (2500 rpm for 10 min) and washed with phosphoric buffer (PBS, AppliChem, Darmstadt, Germany) three times and resuspended in fresh MHB II for inoculums appropriate for the performed assays.
(§2) Bacterial suspensions were added to 96-well plates (Kartell, Noviglio, Italy) at initial inoculums of ca. 5 × 10^8 CFU/mL and incubated under aerobic conditions with shaking (120 rpm) at 37 °C for 24 h. […] After exposure, the wells were washed three times with PBS and a solution of resazurin (Sigma Aldrich, St. Louis, MO, USA) in MHB II (0.01%) was added. This cell viability reagent is metabolized by bacterial dehydrogenases upon contact with living cells. As a result, the blue dye is reduced to a pink resorufin. After 1.5 h of incubation, the absorbance was measured at 570 and 600 nm using a microplate reader (Thermo Fisher Scientific, Waltham, MA, USA). […] The metabolic activity of bacteria in the samples was measured according to the following formula:
(§3) Metabolic activity (%) = (ΔAbs of sample − ΔAbs of negative control)/(ΔAbs of positive control − ΔAbs of negative control);
(§4) ΔAbs = absorbance at 570 nm − absorbance at 600 nm;
(§5) The presented results are the means of nine results obtained on three different days.
For orientation: Alamar Blue is a resazurin reagent that responds to reducing activity.

Data set [2] relates to Escherichia coli ATCC 25922 biofilm. The description is as above. In kind it is cell-based. The settings on record: polystyrene plate, 24 h exposure in MHB II; for MBEC 50: lowest concentration reducing metabolic activity by at least 50 ± 5%. As for the experimental part:
as §1, §2, §3, §4, §5

Data set [3] concerns Pseudomonas aeruginosa ATCC 9027 biofilm. The description is as above. The data set is classed as cell-based. Particulars: for MBEC 50: lowest concentration reducing metabolic activity by at least 50 ± 5%; for MBEC 50 / MBEC 90: polystyrene plate, 24 h exposure in MHB II, resazurin; for MBEC 90: lowest concentration reducing metabolic activity by at least 90 ± 5%, mean of nine results. As for the experimental part:
as §1, §2, §3, §4, §5

The test system of data set [4] is Enterococcus faecalis ATCC 29212 biofilm. The data set is described as above. In kind it is cell-based. Particulars: polystyrene plate, 24 h exposure in MHB II; for MBEC 50: lowest concentration reducing metabolic activity by at least 50 ± 5%. The protocol: as §1, §2, §3, §4, §5
Data set [5] deals with Staphylococus aureus ATCC 6538 biofilm. The data set is described as above. In kind it is cell-based, Staphylococcus aureus. The settings on record: polystyrene plate, 24 h exposure in MHB II, resazurin; for MBEC 50: lowest concentration reducing metabolic activity by at least 50 ± 5%; for MBEC 90: lowest concentration reducing metabolic activity by at least 90 ± 5%, mean of nine results. As for the experimental part: as §1, §2, §3, §4, §5

For data set [6] the test system is unchanged. The experiment in a line: Activity against biofilms on 96-well plates after withdrawal of the antimicrobial (additional 24 h in MHB II). The data set is classed as cell-based, Staphylococcus aureus. Particulars: after withdrawal and additional 24 h in MHB II; for MBEC II 50: lowest concentration giving permanent reduction of metabolic activity by at least 50 ± 5%; for MBEC II 90: lowest concentration giving permanent reduction of metabolic activity by at least 90 ± 5%. The protocol:
(§6) Bacterial strains were obtained from the Polish Collection of Microorganisms (Polish Academy of Science, Wroclaw, Poland). Three Gram-positive and two Gram-negative strains linked with CL-related infections were chosen for the study (Staphylococus aureus ATCC 6538, Staphylococcus epidermidis ATCC 14990, Pseudomonas aeruginosa ATCC 9027, Escherichia coli ATCC 25922, and Enterococcus faecalis ATCC 29212). The bacteria were cultured in a Mueller Hinton Broth II (MHB, Biocorp, Warsaw, Poland) overnight, under aerobic conditions at 37 °C. […] Bacterial suspensions were added to 96-well plates (Kartell, Noviglio, Italy) at initial inoculums of ca. 5 × 10^8 CFU/mL and incubated under aerobic conditions with shaking (120 rpm) at 37 °C for 24 h. […] After exposure, the wells were washed three times with PBS and a solution of resazurin (Sigma Aldrich, St. […] This cell viability reagent is metabolized by bacterial dehydrogenases upon contact with living cells. As a result, the blue dye is reduced to a pink resorufin. After 1.5 h of incubation, the absorbance was measured at 570 and 600 nm using a microplate reader (Thermo Fisher Scientific, Waltham, MA, USA). […] The procedure was conducted as described in Section 4.3, with the difference that after exposure to antimicrobials, the wells were washed three times with PBS and pure MHB II was added. The samples were incubated for another 24 h (aerobic conditions, 120 rpm shaking, 37 °C). […] The absorbance was measured at the same wave lengths and metabolic activity was calculated according to the formula given in Section 4.3. The presented results are means of nine results obtained on three different days.

Data set [7] has as its system Staphylococcus epidermidis ATCC 14990 biofilm. The data set is described as above. The data set is classed as cell-based. The settings on record: after withdrawal and additional 24 h in MHB II; for MBEC II 50: lowest concentration giving permanent reduction of metabolic activity by at least 50 ± 5%; for MBEC II 90: lowest concentration giving permanent reduction of metabolic activity by at least 90 ± 5%. As for the experimental part:
as §6

Data set [8] concerns Pseudomonas aeruginosa ATCC 9027 biofilm. The description is as above. In kind it is cell-based. The settings on record: for effect of pretreatment on biofilm after withdrawal: PA biofilm on polystyrene, concentrations lower than 32 mg/L, after withdrawal and additional 24 h. As for the experimental part:
as §6

The test system of data set [9] is human cells (keratinocytes, erythrocytes). Particulars: cited from earlier work. An excerpt: PA was also the most difficult strain to eliminate from the surface of CL in the previous study, in which we investigated amphibian peptides and short lipopeptides containing hexadecanoic acid according to their potential application as CL solution additives. The results of performed antimicrobial assays were also very promising. However, due to high toxicity towards human keratinocytes in vitro, the ocular applications of lipopeptides with hexadecanoic acid are not worth further consideration. In contrast to those lipopeptides, the compound with two residues of decanoic aci ... || The excellent antimicrobial activity was previously reported for many lipopeptides. This, along with the relatively low production costs, has encouraged many research groups to study their antimicrobial activities and design molecules with optimal properties. C16-KK-NH2 is one of such extensively studied compounds. […] Other derivatives ...

Data set [10] deals with Escherichia coli ATCC 25922 biofilm. The data set can be described thus: Activity against biofilms on 96-well plates after withdrawal of the antimicrobial (additional 24 h in MHB II). The data set is classed as cell-based. The settings on record: after withdrawal and additional 24 h in MHB II. As for the experimental part: as §6
Data set [11] relates to Enterococcus faecalis ATCC 29212 biofilm. The description is as above. The settings on record: after withdrawal and additional 24 h in MHB II. In kind it is cell-based. As for the experimental part:
as §6

Where [12] appears, read: lowest concentration reducing metabolic activity by at least 90 ± 5%, mean of nine results.
[13] abbreviates: lowest concentration giving permanent reduction of metabolic activity by at least 50 ± 5%.
The mark [14] stands for this setting: lowest concentration giving permanent reduction of metabolic activity by at least 90 ± 5%.

neomycin (sulfate): the “MBEC 50” value in data set [1] is recorded as ≤1 mg/L; in [2], 8 mg/L; in [3], 8 mg/L; in data set [4] it was 64 mg/L; in data set [5] it was 4 mg/L. The “MBEC 90” value in data set [1] is on record as 16 mg/L; in [3], 64 mg/L; in [5] it was 64 mg/L. The “reduction of metabolic activity” value in data set [3] (PA biofilm on polystyrene, 24 h exposure, 32 mg/L) was determined as 75%. Further, the “MBEC II 50” value in data set [6] stood at 64 µg/mL; in data set [7], 8 µg/mL. In addition, the “MBEC II 90” value in [6] came out at 64 µg/mL; in [7], 16 µg/mL. For the same compound, the “concentration giving a permanent antibiofilm effect” value in data set [7] (SE biofilm on polystyrene) was 16 mg/L. Further, in [8], the “effect of pretreatment on biofilm after withdrawal” value is “enhanced metabolism of bacteria in comparison to the positive control”.
C16-KK-NH2: the “toxicity towards human cells” value in data set [9] was “high toxicity”.
For the compound `O=C(N[C@H](CO)[C@H](O)c1ccc([N+](=O)[O-])cc1)C(Cl)Cl` [Chloramphenicol], in data set [1] (SE biofilm on polystyrene, 24 h exposure, 64 mg/L), the “metabolic activity of bacteria” value is on record as ~25%. Also, the “MBEC 50” value in [1] was 32 mg/L; in data set [2], 8 mg/L; in data set [3], 4 mg/L; in [4], 32 mg/L; in data set [5], 128 mg/L. In addition, the “MBEC 90” value in [1] is listed as 256 mg/L; in data set [2] (setting [12]) it was 16 mg/L; in data set [3], 128 mg/L; in data set [4] (setting [12]), >256 mg/L; in [5], >256 mg/L. Besides, in [3] (PA biofilm on polystyrene, 24 h exposure, 32–64 mg/L), the “reduction of metabolic activities” value is reported as ~70%. Moreover, the “MBEC II 50” value was >256 µg/mL in data set [6]; >256 µg/mL in data set [7]; >256 µg/mL in data set [10] (setting [13]); 256 µg/mL in data set [8] (lowest concentration giving permanent reduction of metabolic activity by at least 50 ± 5%, after withdrawal and additional 24 h in MHB II); >256 µg/mL in [11] (setting [13]). The “MBEC II 90” value is >256 µg/mL in [6]; >256 µg/mL in data set [7]; >256 µg/mL in data set [10] (setting [14]); >256 µg/mL in [8] (lowest concentration giving permanent reduction of metabolic activity by at least 90 ± 5%, after withdrawal and additional 24 h in MHB II); >256 µg/mL in data set [11] (setting [14]). The “effect of pretreatment on biofilm after withdrawal” value in data set [8] was “significant promotion of biofilm growth”.
